Measurements from the supplement of paper PMC11061612.

Columns and labels:
Test in all cases: Bliss excess, mean over the matrix (fraction); higher = more synergy
[1] = tested on: LN-405 (Glioblastoma)
Summary of the method: (§1)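 Cell lines in DMEM/F12 or RPMI with 10% FBS were plated in 1536-well plates, held 24 hours at 37°C, 5% CO2, then given two-drug dose matrices for 72 hours (DMSO typically 0.2%). Viability was read by CellTiter-Glo 2.0 luminescence and scaled as inhibition from 0 (vehicle wells) to 1 (blank wells). Combination Emax is the second-highest inhibition in the matrix; Bliss excess is observed combination effect minus expected EA + EB − EA·EB, EA and EB being single-agent effects.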

[2] = tested on: 8-MG-BA (Glioblastoma)
Summary of the method: as §1

[3] = tested on: VCaP (Prostate Carcinoma)
Summary of the method: as §1

[4] = tested on: NY (Osteosarcoma)
Summary of the method: as §1

[5] = tested on: TT2609-C02 (Thyroid Gland Carcinoma)
Summary of the method: as §1

[6] = tested on: SISO (Cervical Carcinoma)
Summary of the method: as §1

[7] = tested on: SK-MES-1 (Squamous Cell Lung Carcinoma)
Summary of the method: as §1

[8] = tested on: COLO-824 (Breast Carcinoma)
Summary of the method: as §1

[9] = tested on: BICR22 (Oral Cavity Carcinoma)
Summary of the method: as §1

[10] = tested on: ARH-77 (Non-Cancerous)
Summary of the method: as §1

[11] = tested on: KARPAS-422 (B-Cell Non-Hodgkin's Lymphoma)
Summary of the method: as §1

[12] = tested on: TT (Thyroid Gland Carcinoma)
Summary of the method: as §1

[13] = tested on: NCI-H1666 (Lung Adenocarcinoma)
Summary of the method: as §1

[14] = tested on: GI-ME-N (Neuroblastoma)
Summary of the method: as §1

[15] = tested on: CCK-81 (Colorectal Carcinoma)
Summary of the method: as §1

[16] = tested on: HCC1954 (Breast Carcinoma)
Summary of the method: as §1

[17] = tested on: CAS-1 (Glioblastoma)
Summary of the method: as §1

[18] = tested on: U-2-OS (Osteosarcoma)
Summary of the method: as §1

[19] = tested on: A498 (Kidney Carcinoma)
Summary of the method: as §1

[20] = tested on: NCI-H2591 (Mesothelioma)
Summary of the method: as §1

| SMILES | Bliss excess [1] | Bliss excess [2] | Bliss excess [3] | Bliss excess [4] | Bliss excess [5] | Bliss excess [6] | Bliss excess [7] | Bliss excess [8] | Bliss excess [9] | Bliss excess [10] | Bliss excess [11] | Bliss excess [12] | Bliss excess [13] | Bliss excess [14] | Bliss excess [15] | Bliss excess [16] | Bliss excess [17] | Bliss excess [18] | Bliss excess [19] | Bliss excess [20] |
| --- | --- | --- | --- | --- | --- | --- | --- | --- | --- | --- | --- | --- | --- | --- | --- | --- | --- | --- | --- | --- |
| NC1(C(=O)N[C@@H](CCO)c2ccc(Cl)cc2)CCN(c2ncnc3[nH]ccc23)CC1 [Capivasertib] + CC(=O)c1c(C)c2cnc(Nc3ccc(N4CCNCC4)cn3)nc2n(C2CCCC2)c1=O [Palbociclib] (first compound max 10 µM, 7x7, partner max 10 µM) | -0.0295 | -0.0501 | 0.0119 | -0.0134 | -0.0398 | 0.0057 | 0.0137 | -0.0495 | -0.0329 | -0.0211 | -0.012 | -0.001 | 0.0086 | -0.0823 | -0.0025 | -0.0292 | -0.044 | 0.0197 | -0.0294 | -0.0717 |
| CC1(C)CCC(CN2CCN(c3ccc(C(=O)NS(=O)(=O)c4ccc(NCC5CCOCC5)c([N+](=O)[O-])c4)c(Oc4cnc5[nH]ccc5c4)c3)CC2)=C(c2ccc(Cl)cc2)C1 [Venetoclax] + CN(C)CCCOc1ccc(-c2ccc3ncc4c(c3c2)n(C2CCOCC2)c(=O)n4C)cn1 [AZD0156] (first compound max 1 µM, 7x7, partner max 1 µM) | -0.0256 | -0.0171 | 0.032 | -0.0939 | -0.0351 | 0.0004 | -0.0106 | 0.0588 | -0.0381 | 0.0357 | 0.0398 | -0.13 | -0.0085 | -0.041 | -0.0054 | 0.0044 | -0.0046 | -0.0107 | -0.029 | -0.0202 |
| CC(=O)Nc1cccc(-n2c(=O)n(C3CC3)c(=O)c3c(Nc4ccc(I)cc4F)n(C)c(=O)c(C)c32)c1 [Trametinib] + Cc1nc(-c2cn3c(n2)-c2ccc(-c4cnn(C(C)(C)C(N)=O)c4)cc2OCC3)n(C(C)C)n1 [Taselisib] (first compound max 1 µM, 7x7, partner max 10 µM) | 0.0342 | 0.143 | 0.0444 | 0.0847 | 0.0909 | 0.0809 | 0.198 | 0.21 | 0.16 | 0.0785 | 0.0204 | 0.0288 | 0.0857 | 0.0954 | 0.209 | 0.0455 | 0.0153 | 0.122 | 0.0344 | 0.0206 |
| Cn1cnc2c(F)c(Nc3ccc(Br)cc3Cl)c(C(=O)NOCCO)cc21 [Selumetinib] + C=CCn1c(=O)c2cnc(Nc3ccc(N4CCN(C)CC4)cc3)nc2n1-c1cccc(C(C)(C)O)n1 [AZD1775] (first compound max 10 µM, partner max 1 µM) | -0.0962 | -0.0543 | -0.063 | -0.071 | -0.0169 | -0.0457 | -0.0469 | -0.105 | -0.0362 | -0.0518 | -0.0508 | -0.0599 | -0.0542 | -0.064 | -0.0167 | -0.0005 | -0.0342 | -0.0328 | -0.0218 | -0.0318 |
| CS(=O)(=O)CCNCc1ccc(-c2ccc3ncnc(Nc4ccc(OCc5cccc(F)c5)c(Cl)c4)c3c2)o1 [Lapatinib] + C[C@@H](Oc1cc(-c2cnn(C3CCNCC3)c2)cnc1N)c1c(Cl)ccc(F)c1Cl [Crizotinib] (first compound max 10 µM, 7x7, partner max 10 µM) | -0.0158 | -0.0365 | -0.0653 | -0.0118 | -0.023 | -0.0214 | -0.0288 | 0.002 | -0.0388 | -0.0445 | -0.0649 | -0.002 | -0.0698 | -0.0505 | -0.0255 | 0.0048 | -0.0634 | -0.0263 | -0.0592 | -0.0493 |
| Cc1nc(Nc2ncc(C(=O)Nc3c(C)cccc3Cl)s2)cc(N2CCN(CCO)CC2)n1 [Dasatinib] + CC(=O)Nc1cccc(-n2c(=O)n(C3CC3)c(=O)c3c(Nc4ccc(I)cc4F)n(C)c(=O)c(C)c32)c1 [Trametinib] (first compound max 2 µM, 7x7, partner max 1 µM) | -0.0347 | 0.0219 | -0.0396 | 0.034 | 0.0898 | -0.0267 | 0.0198 | -0.0774 | -0.0037 | -0.0311 | -0.0371 | -0.0272 | -0.0644 | -0.0849 | -0.057 | 0.0318 | -0.107 | -0.0411 | -0.143 | -0.0757 |
| CN(CCO)CC[C@H](CSc1ccccc1)Nc1ccc(S(=O)(=O)NC(=O)c2ccc(N3CCC([C@@H](O)c4ccccc4-c4ccc(Cl)cc4)CC3)cc2)cc1S(=O)(=O)C(F)(F)F [AZD4320] + Cn1cnc2c(F)c(Nc3ccc(Br)cc3Cl)c(C(=O)NOCCO)cc21 [Selumetinib] (first compound max 1 µM, 7x7, partner max 3 µM) | -0.061 | 0.0614 | 0.0322 | 0.0072 | -0.0046 | 0.0504 | 0.0282 | -0.0523 | -0.0468 | -0.0039 | -0.0387 | -0.033 | 0.0676 | 0.0196 | 0.133 | 0.0665 | -0.054 | 0.0351 | 0.0329 | 0.0309 |
| Cc1c2c(nn1C)CSCc1cc(n(C)n1)CSc1cc(c3ccccc3c1)OCCCc1c(C(=O)O)n(C)c3c-2c(Cl)ccc13 [AZD5991] + C1CN(CCC1(C(=O)N[C@@H](CCO)C2=CC=C(C=C2)Cl)N)C3=NC=NC4=C3C=CN4 [Capivasertib] (first compound max 1 µM, 7x7, partner max 3 µM) | 0.0158 | 0.0821 | 0.0545 | 0.0079 | -0.019 | -0.0021 | 0.0568 | 0.01 | 0.119 | -0.037 | -0.132 | -0.0499 | 0.0151 | -0.0245 | 0.0555 | 0.0559 | -0.0094 | 0.0114 | -0.0091 | -0.0306 |
| CC1(C)CCC(CN2CCN(c3ccc(C(=O)NS(=O)(=O)c4ccc(NCC5CCOCC5)c([N+](=O)[O-])c4)c(Oc4cnc5[nH]ccc5c4)c3)CC2)=C(c2ccc(Cl)cc2)C1 [Venetoclax] + C[C@@H]1COCCN1C2=NC(=NC(=C2)C3(CC3)[S@](=N)(=O)C)C4=C5C=CNC5=NC=C4 [AZD6738] (first compound max 1 µM, 7x7, partner max 10 µM) | -0.016 | -0.0603 | -0.0174 | -0.0597 | -0.0293 | -0.0309 | -0.0215 | -0.0203 | -0.0511 | 0.0642 | -0.0055 | -0.0387 | -0.0405 | -0.0353 | -0.0197 | 0.0328 | -0.0068 | -0.0469 | -0.0459 | -0.0595 |
| C=CCn1c(=O)c2cnc(Nc3ccc(N4CCN(C)CC4)cc3)nc2n1-c1cccc(C(C)(C)O)n1 [AZD1775] + O=C(c1cc(Cc2n[nH]c(=O)c3ccccc23)ccc1F)N1CCN(C(=O)C2CC2)CC1 [Olaparib] (first compound max 1 µM, partner max 10 µM) | -0.0583 | -0.0163 | -0.0494 | -0.0731 | -0.0311 | 0.0151 | -0.0915 | -0.0423 | -0.106 | -0.004 | -0.0648 | -0.0543 | 0.0278 | -0.0434 | 0.042 | -0.0208 | -0.0352 | -0.0258 | -0.067 | -0.053 |
| C[C@@H](c1ccc2nccn2c1)n1nnc2ncc(-c3cnn(C)c3)nc21 [Savolitinib] + CC1(C)CCC(CN2CCN(c3ccc(C(=O)NS(=O)(=O)c4ccc(NCC5CCOCC5)c([N+](=O)[O-])c4)c(Oc4cnc5[nH]ccc5c4)c3)CC2)=C(c2ccc(Cl)cc2)C1 [Venetoclax] (first compound max 1 µM, 7x7, partner max 1 µM) | -0.0464 | -0.025 | -0.0325 | -0.0147 | -0.1 | -0.0438 | -0.0505 | -0.0178 | -0.0353 | -0.0092 | -0.0282 | -0.0724 | -0.0595 | -0.0925 | -0.0615 | -0.0189 | -0.055 | -0.0397 | -0.0973 | -0.0802 |
| COc1nnc2ccc(N3CCC(c4ccc(OCCN5CCN(C)C(=O)[C@H]5C)cc4)CC3)nn12 [AZD5153] + Cn1cnc2c(F)c(Nc3ccc(Br)cc3Cl)c(C(=O)NOCCO)cc21 [Selumetinib] (first compound max 1 µM, 7x7, partner max 10 µM) | -0.0171 | -0.007 | -0.059 | -0.005 | -0.0074 | -0.008 | -0.0219 | 0.007 | 0.0497 | -0.0251 | -0.0311 | -0.0018 | -0.0631 | -0.0636 | 0.0649 | -0.0118 | -0.0548 | -0.0291 | 0.0016 | -0.0065 |
